Test results reported in patent publication US8871772B2, “Therapeutic methods and compounds” (Ampio Pharmaceuticals, Inc., priority 2008, dated 2014).

How the values were obtained:
Format in all cases: cell-based
[1] = test system: U-118 metastatic astrocytoma cell line; assay: Proliferation of U-118 cancer cells, Promega cell titer assay
Experimental: Assays were performed to determine the effect of Cpd. 5 on proliferation of an additional cancer cell line. This cell line was the U-118 metastatic astrocytoma cell line. It was obtained from ATCC.
To perform the assays, a 50 mM stock solution of Cpd. 5 was prepared in DMSO and frozen at −80° C. […] Controls containing equivalent amounts of DMSO to the 300 μM solution were mixed for comparative purposes. 100 μl of the resulting solutions were then added to 96 well culture plates in triplicate and placed in a 37° C. incubator with 5% CO2 to warm.
(§1) Cells were removed from passage flasks using trypsin and ethylenediaminetetracetic acid (EDTA) and counted using trypan blue to establish cell counts/ml and viability. For all experiments, viability of cells was greater than 95%. Solutions of 4,000 cells/100 μl were prepared in the medium from above, and 100 μl of the solutions were added to each well of the plates. The plates were placed back in the incubator and incubated with the compounds for 96 hours.
(§2) Following incubation, cell proliferation was assayed by adding 20 μl Promega cell titer aqueous one reagent to each well. Promega cell titer reagent is a solution containing a tetrazolium dye that is reduced by living cells to a formazan dye, and this reduction is proportional to the number of living cells present in the well. The plates were incubated at 37° C. for an additional 4 hours to allow the colorimetric assay to develop, and the OD of each well was determined in a microplate reader using a 530 nm filter. The OD of wells containing cell titer reagent in culture medium with no cells was subtracted from the OD of all experimental readings.
The % decrease of the total cell titer signal was determined using the following formula. ((Diluent OD−Experimental OD)/Diluent OD))×100. Data are presented in Table 5 as mean % decrease of cell titer signal of three separate experiments, plus or minus standard deviation. In the mean % decrease column, a positive number means a decrease in cell titer signal, while a negative number means an increase in cell titer signal. The p values were calculated versus diluent controls.
The above experiment was repeated using the U-118 cells at 3000 cells/well.

[2] = test system: STTG grade 4 astrocytoma cell line; assay: Proliferation of STTG cancer cells, Promega cell titer assay; settings: 20 μM, 96 hours, negative number = increase
Experimental: (§3) Assays were performed to determine the effect of Cpd. 5 (synthesis described in Example 1) on proliferation of two cancer cell lines. These two cell lines were STTG grade 4 astrocytoma cell line and AU565 breast cancer cell line. Both cell lines were obtained from American Type Culture Collection, Rockville, Md. (ATCC).
(§4) To perform the assays, a 50 mM stock solution of Cpd. 5 was prepared in DMSO and frozen at −80° C. Aliquots of the stock solution were removed and 100 μM dilutions were made in Iscove's modified Dulbecco's medium (IMDM; obtained from ATCC) supplemented with 10% fetal bovine serum (FBS) and penicillin/streptomycin solution. Controls containing equivalent amounts of DMSO to the 100 μM solution were mixed for comparative purposes. 100 μl of the resulting solutions were then added to 96 well culture plates in triplicate and placed in a 37° C. incubator with 5% CO2 to warm.
as §1, with “At this point, cells” for “Cells”, “trypsin” for “trypsin and ethylenediaminetetracetic acid (EDTA)”, “above” for “above,”
as §2, with “Promega cell titer reagent is a solution containing a tetrazolium dye that is reduced by living cells to a formazan dye, and this reduction is proportional to the number of living cells present in the well.” left out, “4-18” for “4”
(§5) The % decrease of the total cell titer signal was determined using the following formula. […] The p values were calculated versus diluent controls.

[3] = test system: AU565 breast cancer cell line; assay: Proliferation of AU565 cancer cells, Promega cell titer assay; settings: AU565, 20 μM, 96 hours; negative number = increase
Experimental: as §3, §4
as §1, with “At this point, cells” for “Cells”, “trypsin” for “trypsin and ethylenediaminetetracetic acid (EDTA)”, “above” for “above,”
as §2, with “Promega cell titer reagent is a solution containing a tetrazolium dye that is reduced by living cells to a formazan dye, and this reduction is proportional to the number of living cells present in the well.” left out, “4-18” for “4”
as §5

## O=c1cc(N2CCNCC2)oc2c(-c3ccccc3)cccc12 [LY303511, reference compound]
[1]; U-118, 3000 cells/well, 40 μM final
  MEAN % DECREASE of cell titer signal: 0.41%
[1]; U-118, 4,000 cells/well, 20 μM final, 96 hours
  MEAN % DECREASE of cell titer signal: −25.93%
[2]
  MEAN % DECREASE of cell titer signal: −4.74%
[3]
  MEAN % DECREASE of cell titer signal: −2.34%
